Measurements as given in paper PMC11540844, “Enhancing transcription–replication conflict targets ecDNA-positive cancers” (Nature, 2024).
Values joined by “and” are separate entries in the source; they are usually repeats but may differ in a detail not shown here. Identical values can stand only once. Like-named read-outs stand apart in the source and are kept apart here.

Legend:
[1] = test system: SNU16 cells; assay: Cell viability (CellTiter-Glo); type: cell-based, human; conditions: for 3-day Cell Titer Glo relative signal (Source data Ext Fig 10b): Control SNU16, replicates; for IC50: Homo sapiens
Procedure: Cell viability assay was performed using CellTiter-Glo (Promega, catalgoue no. G8461) as previously described. Briefly, cells were seeded into a 384-well plate one day before adding inhibitors. Equal volumes of vehicles or drugs diluted at indicated concentration were added into each well the next day, and the cells were incubated for three days. On the third day, after equilibrating plate and CellTiter-Glo reagent at room temperature for 30 min, reagent was added into each well and incubated for 15 min at room temperature. Luminescence was measured using a Synergy 2 microplate reader. Four biological replicates were performed for each condition. Data analysis was performed with GraphPad Prism (v.9.1.0). […]

[2] = test system: infigratinib-resistant SNU16 cells; assay: 3-day Cell Titer Glo in SNU16 cells after 8 weeks of infigratinib; type: cell-based, human; conditions: for 3-day Cell Titer Glo relative signal (Source data Ext Fig 10b): infi-intermed 8 wk SNU16, replicates
Text: (§1) Nuclear staining is illustrated using DAPI (blue). […] Scale bar represents 10 µm. (b) Timeline of experimental overview. […] Lane 1 (control) is from a non-contiguous portion of the gel from lanes 2 and 3 (infigratinib treated samples).

[3] = test system: FGFR2 copy number in SNU16 cells; assay: qPCR quantification of FGFR2 oncogene number in SNU16 cells; type: cell-based, human; conditions: 8.0 weeks of infigratinib
Text: as §1

[4] = test system: FGFR2 copy number; assay: FGFR2 copy number by qPCR on xenograft tumour DNA; type: in vivo, mice; conditions: infigratinib 15 mg kg-1 PO QD
Procedure: For copy number analysis, tumours were cut into 10–20 mg pieces and flash-frozen in liquid nitrogen. DNA was extracted using the QIAcube DNA Extraction Kit (Qiagen, no. 51331). Briefly, a mixture of buffer ATL and proteinase K was added to the frozen tumour pieces, and they were set out to equilibrate to room temperature. Tumours were then vortexed for 30 s and placed into an incubator at 56 °C to digest overnight. The next morning, an additional 150 μl of buffer ATL was added and samples vortexed for an additional 30 s to reduce the viscosity of the samples before transfer to the S block. Qiagen protocol for the 96 QIAcube HT was followed for the remainder of the DNA isolation. Purified DNA was quantified for the presence of double-stranded DNA on the QIAxpert (Qiagen, catalogue no. 9002340). The DNA was diluted to 5 ng µl^−^1 (5× working stock) in RNase/DNase free water (Thermo Fisher Scientific, catalogue no. 10977015) and 2 µl was loaded into a 384-well plate. […]

[5] = test system: SNU16 xenograft tumours; assay: SNU16 xenograft tumour model, tumour volume; type: in vivo, mice; conditions: for tumour volume, individual mice: Infigratinib 15 mg/kg PO QD
Procedure: Animal experiments were performed in accordance with protocols approved by the Charles River Accelerator and Development Lab (CRADL) Institutional Animal Care and Use Committee (protocol no. EB17-010-066). Mice were socially housed in individually ventilated cages on a 12/12 h light/dark cycle with temperatures between 65 and 75 °F and 30–50% humidity. The SNU16 gastric cancer cell line was purchased from ATCC (catalogue no. CRL5974) and maintained in Roswell Park Memorial Institute growth medium (Gibco, catalogue no. 22400-089) supplemented with 10% FBS (Omega Scientific, catalogue no. FB-02). To establish tumours, 1 × 10^6 SNU16 cells in 200 µl of a 1:1 mixture of PBS and Matrigel (Corning, catalogue no. 354234) were given by subcutaneous injection into the right flank of 9-week-old female severe combined immunodeficient beige mice (Envigo, strain code 186). Tumour measurements were taken two to three times per week and body weights were taken daily. Tumour volume measurements were obtained using digital calipers and tumour volumes (mm^3) were determined using the formula: tumour volume = (L × W2)/2, where L is the length/largest tumour diameter and W is the width/shortest tumour diameter, with all tumours collected before reaching 1,500 mm^3. Animals (eight mice per group, which historically allowed for significance determination between vehicle and infigratinib) were randomly assigned to unblinded treatment with vehicle, infigratinib (15 mg kg^−^1 oral (PO) once-daily (QD)), BBI-2779 (30 mg kg^−^1 PO every other day (Q2D)) or the combination of BBI-2779 and infigratinib once average tumour volume was 285 (±10)/mean (±s.e.m.) mm^3. One vehicle tumour was taken down on day 22; the mouse was sacrificed due to large tumour volume. Infigratinib was formulated in a 1:1 mixture of sodium acetate buffer, pH 4.6 and polyethylene glycol 300. BBI-2779 was formulated in 0.5% methylcellulose (Sigma-Aldrich, catalogue no. M0512) and 0.2% Tween 80 (AG Scientific, catalogue no. T-2835) in HyPure Molecular Biology Grade Water (HyClone, catalogue no. SH30538.02). […] Animals were sacrificed 6 h, 24 h or 36 h after the last dose, and tumours were collected for western blot or copy number analysis.

## CCN1CCN(c2ccc(Nc3cc(N(C)C(=O)Nc4c(Cl)c(OC)cc(OC)c4Cl)ncn3)cc2)CC1 [infigratinib]
[1]; 0.152416 nM infigratinib
  3-day Cell Titer Glo relative signal (Source data Ext Fig 10b): 1.0456 and 1.0233
[1]; 0.457247 nM infigratinib
  3-day Cell Titer Glo relative signal (Source data Ext Fig 10b): 0.9513 and 0.976
[1]; 1.37174 nM infigratinib
  3-day Cell Titer Glo relative signal (Source data Ext Fig 10b): 0.9221 and 0.9386
[1]; 4.11523 nM infigratinib
  3-day Cell Titer Glo relative signal (Source data Ext Fig 10b): 0.7516 and 0.791
[1]; 12.3457 nM infigratinib
  3-day Cell Titer Glo relative signal (Source data Ext Fig 10b): 0.4353 and 0.4209
[1]; 37.037 nM infigratinib
  3-day Cell Titer Glo relative signal (Source data Ext Fig 10b): 0.1753 and 0.1537
[1]; 111.111 nM infigratinib
  3-day Cell Titer Glo relative signal (Source data Ext Fig 10b): 0.1409 and 0.1325
[1]; 333.333 nM infigratinib
  3-day Cell Titer Glo relative signal (Source data Ext Fig 10b): 0.1569 and 0.1376
[1]; 1000 nM infigratinib
  3-day Cell Titer Glo relative signal (Source data Ext Fig 10b): 0.1554 and 0.1292
[1]; SNU-16, 72 h, control SNU16 cells, 3-day Cell Titer Glo, Extended Data Fig. 10b, read-out: "IC50" control
  IC50: 7.85 nM
[1]; SNU-16, SNU16 cells, Extended Data Fig. 10, read-out: IC50 (EC50 dose used for 8 weeks of treatment)
  IC50: 25 nM
[2]; Homo sapiens, SNU-16, SNU16 after 8 weeks of infigratinib, 3-day Cell Titer Glo
  IC50: 30.1 nM
[2]; 0.152416 nM infigratinib
  3-day Cell Titer Glo relative signal (Source data Ext Fig 10b): 0.9851 and 1.028
[2]; 0.457247 nM infigratinib
  3-day Cell Titer Glo relative signal (Source data Ext Fig 10b): 1.032 and 1.122
[2]; 1.37174 nM infigratinib
  3-day Cell Titer Glo relative signal (Source data Ext Fig 10b): 1.185 and 1.134
[2]; 4.11523 nM infigratinib
  3-day Cell Titer Glo relative signal (Source data Ext Fig 10b): 1.087 and 1.319
[2]; 12.3457 nM infigratinib
  3-day Cell Titer Glo relative signal (Source data Ext Fig 10b): 1.111 and 1.106
[2]; 37.037 nM infigratinib
  3-day Cell Titer Glo relative signal (Source data Ext Fig 10b): 0.3322 and 0.3782
[2]; 111.111 nM infigratinib
  3-day Cell Titer Glo relative signal (Source data Ext Fig 10b): 0.158 and 0.1671
[2]; 333.333 nM infigratinib
  3-day Cell Titer Glo relative signal (Source data Ext Fig 10b): 0.14 and 0.158
[2]; 1000 nM infigratinib
  3-day Cell Titer Glo relative signal (Source data Ext Fig 10b): 0.1637 and 0.1685
[3]
  FGFR2 CN: 332.123
[4]
  FGFR2 copy number by qPCR on tumour DNA, individual tumours: 356.837 and 338.53 and 324.931 and 257.5 and 276.141 and 331.223 and 308.687 and 333.495
[5]; day of study 1
  tumour volume, individual mice: 275.78 mm^3 and 318.63 mm^3 and 234.6 mm^3 and 333.76 mm^3 and 272.35 mm^3 and 399.19 mm^3 and 215.35 mm^3 and 244.48 mm^3
[5]; day of study 5
  tumour volume, individual mice: 207 mm^3 and 207.01 mm^3 and 194.06 mm^3 and 114.59 mm^3 and 223.51 mm^3 and 272.2 mm^3 and 162.32 mm^3 and 141.42 mm^3
[5]; day of study 8
  tumour volume, individual mice: 138.07 mm^3 and 126.44 mm^3 and 146.81 mm^3 and 70.82 mm^3 and 180.25 mm^3 and 231.85 mm^3 and 107.33 mm^3 and 100.66 mm^3
[5]; day of study 11
  tumour volume, individual mice: 156.25 mm^3 and 176.04 mm^3 and 166.7 mm^3 and 123.46 mm^3 and 218.18 mm^3 and 282.27 mm^3 and 116.93 mm^3 and 111.73 mm^3
[5]; day of study 13
  tumour volume, individual mice: 172.17 mm^3 and 176.87 mm^3 and 188.21 mm^3 and 133.63 mm^3 and 270.33 mm^3 and 330.51 mm^3 and 108.35 mm^3 and 124.21 mm^3
[5]; day of study 15
  tumour volume, individual mice: 126.09 mm^3 and 205.17 mm^3 and 263.36 mm^3 and 166 mm^3 and 337.92 mm^3 and 367.94 mm^3 and 166.72 mm^3 and 154.6 mm^3
[5]; day of study 18
  tumour volume, individual mice: 157.95 mm^3 and 204.33 mm^3 and 255.64 mm^3 and 193.27 mm^3 and 380.93 mm^3 and 448.61 mm^3 and 202.33 mm^3 and 176.11 mm^3
[5]; day of study 20
  tumour volume, individual mice: 165.11 mm^3 and 203.59 mm^3 and 221.67 mm^3 and 192.93 mm^3 and 417.82 mm^3 and 479.35 mm^3 and 231.86 mm^3 and 168.05 mm^3
[5]; day of study 22
  tumour volume, individual mice: 223.01 mm^3 and 251.01 mm^3 and 223.64 mm^3 and 246.07 mm^3 and 397.26 mm^3 and 479.73 mm^3 and 254.62 mm^3 and 184.76 mm^3
[5]; day of study 25
  tumour volume, individual mice: 231.38 mm^3 and 244.62 mm^3 and 333.8 mm^3 and 257.4 mm^3 and 426.98 mm^3 and 499.94 mm^3 and 237.29 mm^3 and 196.21 mm^3
[5]; day of study 27
  tumour volume, individual mice: 227.44 mm^3 and 236.39 mm^3 and 325 mm^3 and 271.28 mm^3 and 505.17 mm^3 and 681.55 mm^3 and 273.5 mm^3 and 238.76 mm^3
[5]; infigratinib 15 mg kg^−1 PO QD, day 25, vs vehicle, P < 0.0005
  mean per cent tumour growth inhibition: 97%
